Experiments:
dHL-60 cells = assay: stability in culture over time, DCFDA ROS assay; format: cell-based, human; conditions: 20 μM, 6 hr treatment window
Experimental: (A) Apoptosis analysis by FACS of HL-60 cells treated with compound or vehicle control for 2 hours prior to 7-AAD and Annexin V staining. (B) HL-60 cells from A were harvested and lysates were immunoblotted for levels of pPAK, and actin was used as a control for loading. (C) F-actin reorganization in freshly isolated fMLP-stimulated primary murine neutrophils was analyzed. […] Cells were exposed to a 10 μM dose of Phox-I1, Phox-I2, and Analog 13, and 200 nM nocodazole. (D) The effect of Phox-I on NOX4 mediated ROS production was tested in primary murine neutrophils transfected with a NOX4 expressing plasmid. 10 μM Phox-I1 was applied to the cells for 30 min prior to ROS assay by luminol chemiluminescence in the presence of HRP. The fMLP-stimulated ROS activity in the presence or absence of 10 uM Phox-I1 was measured in parallel. (E) The antioxidant abilities of these lead compounds were tested by prestimulating dHL-60 cells with fMLP for 30 minutes prior to treatment with Phox-I1 or Phox-I2. Levels of superoxide were analyzed by DCFDA assay and FACS. NAC, apocyanin, DPI, and NSC23766 treated cells served as controls. […]

[1] = system: primary murine neutrophils; assay: F-actin immunofluorescence, polarization upon fMLP stimulation; format: cell-based, mouse; conditions: 10 μM; untreated control about 80%
Experimental: Cells were pretreated with compound for 40 minutes prior to wash, and resuspended in HBSS with compound. Cells were allowed to adhere to fibronectin (Sigma Aldrich) coated glass coverslips (15 min) and then stimulated with 100 nM fMLP (3 min). Coverslips were then fixed with 3.7% paraformaldehyde (Sigma Aldrich) and then staining for […] was performed with rhodamine phalloidin per the manufacturer's instructions (Molecular Probes). Another method of addressing Rac-signaling specificity in neutrophils is by monitoring their ability to polarize actin to the leading edge upon fMLP stimulation. Neither Phox-I1, Phox-I2, nor an analog 13 (all at 10 μM), were able to block the Rac-mediated dynamic process of F-actin polarization to the leading edge of primary murine neutrophils as observed by F-actin immunofluorescence imaging (FIG. 4C, left panel). F-actin polarization was evident in about 80% of each treatment group of cells as in the control, untreated cells (FIG. 4C, right panel).

[2] = system: fMLP-stimulated differentiated HL-60 cells; assay: H2-DCFDA FACS ROS production assay in fMLP-stimulated differentiated HL-60 cells; format: cell-based, human; conditions: for IC50: dHL-60 cells, DCFDA assay; for inhibition of ROS production, Phox-I1 analogs: FIG. 3B
Experimental: HL-60 cells were propagated in RPMI 1640 medium containing 10% heat inactivated fetal bovine serum, 2 mM L-glutamine, 100 U/mL penicillin/streptomycin at 37° C. in air containing 5% CO2. For differentiation, HL-60 cells were cultured in 1.3% dimethyl sulfoxide (DMSO) as previously described (Servant, G., et al. (1999) Mol Biol Cell 10, 1163-1178, hereby incorporated by reference in its entirety). Primary murine neutrophils were isolated from C57Bl/6 mouse bone marrow according to a published protocol (Filippi et al., (2004) Nat Immunol 5, 744-751, hereby incorporated by reference in its entirety) using a discontinuous Percoll (Pharmacia) gradient and were utilized immediately in experiments. Human neutrophils were obtained from fresh blood (IRB #2010-1855, Cincinnati Children's Hospital medical Center) following a well established protocol using density gradient separation from whole blood (Oh et al. (2008) J Vis Exp., 17, pii: 745, hereby incorporated by reference in its entirety).
Cells (5×10^5) were harvested and processed for Annexin V/7AAD staining according to manufacturer's protocol (Becton Dickinson). Flow cytometry data were acquired on a FACS Canto bench-top flow cytometer (Becton Dickinson) and the cell cycle distributions were determined by […] using Flo-Jo software (Bosco et al (2010) Blood 115, 3320-3328, hereby incorporated by reference in its entirety). For ROS production assay, primary murine neutrophils or dHL60 cells were incubated with compound for 2 hours prior to addition of H2-DCFDA according to manufacturer's instructions (Molecular Probes). Cells were then stimulated with 10 μM fMLP (Sigma), 1 mM CaCl2, and 1.5 mM MgCl2 for 15 minutes prior to wash and FACS analysis for mean fluorescence intensity. Non-fMLP stimulated control values were subtracted from all samples before normalization to fMLP-stimulated, vehicle control treated sample in order to display percent ROS inhibition.
To validate the hits from preliminary screening in cells, several cellular functional assays were performed using different cell types to measure the effect of compounds on inhibition of ROS production. ROS levels were first analyzed by fluorescence-activated cell sorting (FACS) in HL-60 pre-incubated with compounds for 2 hr prior to stimulation of ROS production. The p67^phox inhibitor, Phox-I1, was tested against NAC (a ROS scavenger), DPI (a broad range inhibitor of NADPH oxidase), and NSC23766 (a Rac-GTP inhibitor; FIG. 2A). […] H2O2 added to the cells was included as a positive control for ROS measurement. Second, to test the capacity of Phox-I1 to inhibit ROS production in a primary cell context, primary murine neutrophils isolated from mouse bone marrow were treated with increasing concentrations of Phox-I1 and the efficacy of inhibition of fMLP-stimulated ROS production was analyzed. DPI treatment was included as a positive control for inhibition of ROS production (FIG. 2B). […] Next, to ascertain the optimal effective dose for ROS inhibition in cells, a dose titration series of Phox-I1 was administered to dHL-60 cells (FIG. 2C).

SMILES | efficacy of ROS inhibition over time in culture (dHL-60 cells) | cells with F-actin polarization [1] | ROS production compared to standard ROS inhibitors ([2]; 20 μM, pre-incubated 2 hr) | IC50 ([2]; Homo sapiens, HL-60) [nM] | dose of optimal cellular response ([2]; dose titration in dHL-60 cells) [µM] | inhibition of ROS production, Phox-I1 analogs ([2]; pre-incubated 2 hr) | IC50 [2] [nM] | inhibition of ROS production, Phox-I1 analogs ([2]; pre-incubated 2 hr, listed as Analog 16) | inhibition of ROS production, Phox-I1 analogs ([2]; pre-incubated 2 hr, listed as analog 16)
COc1ccc2c(c1)C1C=C(c3ccccc3)NN1C(c1cccc([N+](=O)[O-])c1)O2 (centres unmarked) [Phox-I1] | no significant change in efficacy | about 80% | able to attenuate ROS production | ~3000 | 10 | greatest inhibition of ROS production | – | – | –
O=[N+]([O-])c1cccc(C2Nc3ccc([N+](=O)[O-])cc3C3C=CCC32)c1 (centres unmarked) [Phox-I2] | retained some efficacies | about 80% | – | – | – | – | ~1000 | improved ROS inhibition over Phox1 | greatest inhibition of ROS production

— patent publication US9567347B2, “Use of small molecule inhibitors targeting the interaction between RAC GTPase and p67(phox)” (CHILDREN'S HOSPITAL MEDICAL CENTER, priority 2012, dated 2017)
